Measurements as given in PMC7796460, “Relation of Metal-Binding Property and Selective Toxicity of 8-Hydroxyquinoline Derived Mannich Bases Targeting Multidrug Resistant Cancer Cells” (Cancers, 2021).
Like-named read-outs stand apart in the source and are kept apart here.

Key:
[1] = system: MES-SA/Dx5 cells; assay: MTT viability assay, MES-SA/Dx5; format: cell-based, human; conditions: for IC50: read-out: MES-SA/Dx5 (toxicity, Table 2)
Source text: (§1) MDCK II canine kidney cells, A431 epidermoid carcinoma cells, the human uterine sarcoma cell lines MES-SA and the doxorubicin selected MES-SA-Dx5 were obtained from ATCC (MDCK II: No. CRL-2936™, A431: No. CRL-1555™, MES-SA: No. CRL-1976™, MES-SA/Dx5: No. CRL-1977™). ABCB1 was expressed in A431 and MES-SA cells using lentiviral transduction. The human cervix carcinoma cell line KB-3-1 and the vinblastine selected KB-v1were kind gifts from Dr. Michael M. Gottesman, National Institutes of Health. The phenotype of the resistant cells was verified using cytotoxicity assays. MDCK-B1 and MDCK-MM were established by the Sleeping Beauty transposon-based gene delivery system. OVCAR-8 and NCI-ADRres cells (obtained from the Division of Cancer Treatment and Diagnosis (DCTD) Tumor Repository (National Cancer Institute, Frederick, MD, USA)) were cultivated in RPMI-1640 (Sigma Aldrich, Budapest, Hungary), and other cell lines were cultivated in Dulbecco’s Modified Eagle Medium (DMEM, Sigma Aldrich, Budapest, Hungary), supplemented with 10% fetal bovine serum, 5 mM glutamine, and 50 unit/mL penicillin and streptomycin (Life Technologies, Carlsbad, CA, USA). All cell lines were cultivated at 37 °C, 5% CO2.
(§2) MTT viability assays were performed as described earlier with minor modifications. Briefly, cells were seeded into 96-well tissue culture plates (Sarstedt, Newton, NC, USA/Orange, Braine-l’Alleud, Belgium) at a density of 5000 cells/well and allowed to attach overnight. Test compounds were added to achieve the required final concentration in a final volume of 100 µL per well. After an incubation period of 72 h, the supernatant was removed and fresh medium containing the MTT reagent (0.083 mg/mL) was added. Incubation with MTT at 37 °C was terminated after 1 h by removing the supernatant and lysing the cells with 100 µL DMSO per well. Viability of the cells was measured spectrophotometrically based on the absorbance values at 540 nm using either a Perkin Elmer Victor X3 or an EnSpire microplate reader. Data were background corrected by subtraction of the signal obtained from unstained cell lysates and normalized to untreated cells. Curves were fitted by Prism software (GraphPad Software Inc., San Diego, CA, USA) using the sigmoidal dose-response model (comparing variable and fixed slopes). […] Significance was calculated using unpaired t-tests; results are given as *: p ≤ 0.05, **: p ≤ 0.01, ***: p ≤ 0.001, ****: p ≤ 0.0001.

[2] = system: MES-SA cells; assay: MTT viability assay, MES-SA; format: cell-based, human; conditions: Table 2, value outside brackets, read-out: MES-SA (toxicity, Table 2)
Source text: as §1, §2

[3] = system: MES-SA/Dx5 cells; assay: ROS determination with DCFDA, MES-SA/Dx5; format: cell-based, human; conditions: 2 h
Protocol: (§3) Measurements were performed as described earlier. Briefly, cells were harvested, washed with PBS, and incubated with 10 µM DCFDA in a water bath shaker at 37 °C for 30 min in a density of 3 × 10^6 cells/mL. After washing with PBS, cells were seeded to 96-well plates in PBS in a density of 2 × 10^4 cells/well. Following the measurement of the basal fluorescence, test compounds were added in different concentrations and the fluorescence of the samples was followed at time intervals of 10 min. DCFDA solution in buffer was used as a cell free control to test for interaction of the test compounds with DCFDA. Data were analyzed as fold change of fluorescence compared to basal levels and untreated cells. Significance was calculated using unpaired t-tests; results are given as *: p ≤ 0.05, **: p ≤ 0.01, ***: p ≤ 0.001, ****: p ≤ 0.0001.
(§4) Table S3: Characterization of intracellular ROS production with the DCFDA assay for P -gp negative MES-SA and P-gp positive MES-SA/Dx5 cells. Fold changes in fluorescence are shown after a 2 h with the investigated 8 -hydroxyquinoline ligands. Data S-refer to Figure 7 and allow […]
(§5) concentration range from 6.25µ M to 50µ M. Fold change of fluorescence obtained in the presence of 5 mM NAC is given in brackets.

[4] = pKa by UV-visible spectrophotometric titrations; format: physicochemical; conditions: T = 25 °C, I = 0.2 M (KCl); for pKa: 0.2 M KCl (ionic strength)
[5] = system: MES-SA cells; assay: ROS determination with DCFDA, MES-SA; format: cell-based, human; conditions: 2 h
Protocol: as §3, §4, §5

[6] = Table 2, value in brackets (Tariquidar as in Table 1)
[7] = Table 2, value outside brackets
[8] = MES-SA/Dx5, 6.25 µM, presence of 5 mM NAC (brackets)
[9] = MES-SA/Dx5, 12.5 µM, presence of 5 mM NAC (brackets)
[10] = MES-SA/Dx5, 25 µM, presence of 5 mM NAC (brackets)
[11] = MES-SA/Dx5, 50 µM, presence of 5 mM NAC (brackets)
[12] = 6.25 µM, presence of 5 mM NAC (brackets)
[13] = 12.5 µM, presence of 5 mM NAC (brackets)
[14] = 25 µM, presence of 5 mM NAC (brackets)
[15] = 50 µM, presence of 5 mM NAC (brackets)
[16] = Homo sapiens, MES-SA/Dx5, Table 2, value outside brackets
[17] = group named in the cell (NmorpholiniumH+, NpiperidiniumH+, NbenzylamineH2+), read-out: pKa (additional)

In the case of “7-(2-fluorobenzyl-aminomethyl)-8-hydroxyquinoline hydrochloride [De-Cl-Q-4]”, the “SR MES-SA/Dx5 (Table 2)” value [1, 6] is reported as 1.72, the “SR MES-SA/Dx5 (Table 2)” value [1, 7] is reported as 5.22 and the IC50 [1, 7] is reported as 340 ± 10 nM. The IC50 [2] was 1780 ± 80 nM, the “Fold change in fluorescence (DCFDA)” value ([3]; MES-SA/Dx5, 6.25 µM) was 1.282± 0.35 and the “Fold change in fluorescence (DCFDA)” value [3, 8] was 1.137± 0.30. For the same compound, the “Fold change in fluorescence (DCFDA)” value ([3]; MES-SA/Dx5, 12.5 µM) was 1.177± 0.22, the “Fold change in fluorescence (DCFDA)” value [3, 9] was 1.088± 0.23 and the “Fold change in fluorescence (DCFDA)” value ([3]; MES-SA/Dx5, 25 µM) was 1.344± 0.27. The “Fold change in fluorescence (DCFDA)” value [3, 10] was 1.282± 0.28, the “Fold change in fluorescence (DCFDA)” value ([3]; MES-SA/Dx5, 50 µM) was 1.373± 0.35 and the “Fold change in fluorescence (DCFDA)” value [3, 11] was 1.265± 0.27. The “pKa (NquinoliniumH+)” value [4] was 3.21 ± 0.04, the “pKa (OH)” value [4] was 6.42 ± 0.04 and the “pKa (additional)” value ([4]; group named in the cell (NmorpholiniumH+, NpiperidiniumH+, NbenzylamineH2+)) was 10.69 ± 0.04 (NbenzylamineH2^+). For the same compound, the “Fold change in fluorescence (DCFDA)” value ([5]; 6.25 µM) was 1.431± 0.39, the “Fold change in fluorescence (DCFDA)” value [5, 12] was 1.364± 0.44 and the “Fold change in fluorescence (DCFDA)” value ([5]; 12.5 µM) was 1.118± 0.14. For the same compound, the “Fold change in fluorescence (DCFDA)” value [5, 13] was 1.345± 0.27, the “Fold change in fluorescence (DCFDA)” value ([5]; 25 µM) was 1.260± 0.20 and the “Fold change in fluorescence (DCFDA)” value [5, 14] was 1.111± 0.22. The “Fold change in fluorescence (DCFDA)” value ([5]; 50 µM) was 1.328± 0.29 and the “Fold change in fluorescence (DCFDA)” value [5, 15] was 1.259± 0.29.
For `Oc1c(CN2CCOCC2)cc(Cl)c2cccnc12` [Compound 5-Cl-Q-2], the IC50 [1, 16] was 640 ± 30 nM, the “SR MES-SA/Dx5 (Table 2)” value [1, 6] was 1.39 and the “SR MES-SA/Dx5 (Table 2)” value [1, 7] was 2.19. For the same compound, the IC50 ([2]; Homo sapiens, MES-SA) was 1400 ± 240 nM, the “Fold change in fluorescence (DCFDA)” value ([3]; MES-SA/Dx5, 6.25 µM) was 2.594± 0.87 and the “Fold change in fluorescence (DCFDA)” value [3, 8] was 1.246± 0.47. The “Fold change in fluorescence (DCFDA)” value ([3]; MES-SA/Dx5, 12.5 µM) was 3.214± 0.86, the “Fold change in fluorescence (DCFDA)” value [3, 9] was 1.651± 0.73 and the “Fold change in fluorescence (DCFDA)” value [3, 10] was 1.265± 0.27. For the same compound, the “Fold change in fluorescence (DCFDA)” value ([3]; MES-SA/Dx5, 50 µM) was 4.697± 3.24, the “Fold change in fluorescence (DCFDA)” value [3, 11] was 1.462± 0.39 and the pKa [4, 17] was 5.83 ± 0.02. The pKa ([4]; read-out: pKa (NquinoliniumH+)) was under 2, the pKa ([4]; read-out: pKa (OH)) was 9.68 ± 0.03 and the “Fold change in fluorescence (DCFDA)” value ([5]; 6.25 µM) was 1.896± 0.32. For the same compound, the “Fold change in fluorescence (DCFDA)” value [5, 12] was 1.600± 0.55, the “Fold change in fluorescence (DCFDA)” value ([5]; 12.5 µM) was 2.226± 0.39 and the “Fold change in fluorescence (DCFDA)” value [5, 13] was 1.263± 0.62. For the same compound, the “Fold change in fluorescence (DCFDA)” value ([5]; 25 µM) was 2.086± 0.66, the “Fold change in fluorescence (DCFDA)” value [5, 14] was 1.309± 0.51 and the “Fold change in fluorescence (DCFDA)” value ([5]; 50 µM) was 2.609± 0.77. For the same compound, the “Fold change in fluorescence (DCFDA)” value [5, 15] was 1.178± 0.40.
For `Oc1c(CN2CCCCC2)cc(Cl)c2cccnc12` [Compound 5-Cl-Q-3], the IC50 [1, 16] was 150 ± 10 nM, the “SR MES-SA/Dx5 (Table 2)” value [1, 6] was 1.61 and the “SR MES-SA/Dx5 (Table 2)” value [1, 7] was 8.40. For the same compound, the IC50 ([2]; Homo sapiens, MES-SA) was 1300 ± 210 nM, the “Fold change in fluorescence (DCFDA)” value ([3]; MES-SA/Dx5, 6.25 µM) was 1.975± 0.50 and the “Fold change in fluorescence (DCFDA)” value [3, 8] was 1.024± 0.19. The “Fold change in fluorescence (DCFDA)” value ([3]; MES-SA/Dx5, 12.5 µM) was 1.954± 0.42, the “Fold change in fluorescence (DCFDA)” value [3, 9] was 0.954± 0.14 and the “Fold change in fluorescence (DCFDA)” value ([3]; MES-SA/Dx5, 25 µM) was 2.714± 0.84. The “Fold change in fluorescence (DCFDA)” value [3, 10] was 1.005± 0.21, the “Fold change in fluorescence (DCFDA)” value ([3]; MES-SA/Dx5, 50 µM) was 3.077± 1.29 and the “Fold change in fluorescence (DCFDA)” value [3, 11] was 1.086± 0.14. It also gave a pKa [4, 17] of 7.16 ± 0.03, a pKa ([4]; read-out: pKa (NquinoliniumH+)) of 1.61 ± 0.04 and a pKa ([4]; read-out: pKa (OH)) of 4.85 ± 0.02. For the same compound, the “Fold change in fluorescence (DCFDA)” value ([5]; 6.25 µM) was 1.672± 0.27, the “Fold change in fluorescence (DCFDA)” value [5, 12] was 1.307± 0.51 and the “Fold change in fluorescence (DCFDA)” value ([5]; 12.5 µM) was 1.861± 0.40. For the same compound, the “Fold change in fluorescence (DCFDA)” value [5, 13] was 1.542± 0.35, the “Fold change in fluorescence (DCFDA)” value ([5]; 25 µM) was 1.812± 0.27 and the “Fold change in fluorescence (DCFDA)” value [5, 14] was 1.382± 0.67. The “Fold change in fluorescence (DCFDA)” value ([5]; 50 µM) was 2.075± 0.68 and the “Fold change in fluorescence (DCFDA)” value [5, 15] was 1.155± 0.25.
